# Like-named read-outs stand apart in the source and are kept apart here.
# Tests used:
# SD rats = assay: Anticonvulsant effect, pentylenetetrazol (PTZ)-induced epileptic convulsion SD rat model; type: in vivo
# Description: To establish an epileptic convulsion SD rat animal model by intraperitoneally injecting 50 mg/kg of pentylenetetrazol (PTZ) into SD rats, and evaluate the anticonvulsant effect of compound 41.
# Male SD rats weighing 300±10 g, as test animals, were acclimatized for 7 days after arriving at the animal facility and were randomly divided into groups based on weight one day before administration. The rats were fasted for half a day before testing but had access to water. During the test, compound 41 was orally administered to the animals at 3.5 mg/kg in advance. Two hours after the oral administration, a PTZ solution was intraperitoneally injected at 50 mg/kg. Observations were made on the rats' epileptic convulsion behavior within 1 h of performing PTZ induction. The latency period of clonic convulsion and the latency period of tonic-clonic behavior were measured.
# Behavioral raw data are finally expressed as mean±standard error (Mean S.E.M.) and statistically analyzed using One-way ANOVA Dunnett post hoc. P<0.05 indicates the presence of a significant difference, P<0.01 indicates the presence of a very significant difference, and P<0.001 indicates the presence of an extremely significant difference.
# [1] = Pharmacokinetic study in SD rats (plasma and brain); type: in vivo
# Description: Male SD rats weighing about 250 g were randomly divided into groups of 3.
# The intravenous dose was 6.1 mol/kg, and the intragastric dose was 24.4 μmol/kg. Animals were fasted for 12 h before administration, with free access to water, and were fed together 3 h post-administration. Blood samples of about 0.3 mL were collected at 5 min (intravenous), 15 min, 30 min, 1 h, 2 h, 3 h, 4 h, 6 h, 8 h, 12 h, and 24 h post-administration into heparinized EP tubes and centrifuged at 13,500 rpm for 10 min to separate the plasma. Rat brain tissue samples were collected after cardiac perfusion at 30 min, 2 h, and 6 h. After pretreatment, the samples were analyzed by LC-MS/MS to determine the concentration of the test compound in the plasma and brain, and pharmacokinetic parameters were calculated.
# [2] = Pharmacokinetic study in CD-1 mice (plasma and brain); type: in vivo
# Description: Male CD-1 mice weighing about 25 g were randomly divided into groups of 3.
# The intravenous (IV) dose was 1 mg/kg, and the intragastric (IG) dose was 5 mg/kg. Animals were fasted for 12 h before administration, with free access to water, and were fed together 3 h post-administration. Blood samples of about 0.15 mL were collected at 5 min (intravenous), 15 min, 30 min, 1 h, 2 h, 4 h, 8 h, 12 h, and 24 h post-administration into heparinized EP tubes and centrifuged at 13,500 rpm for 10 min to separate the plasma. Mouse brain tissue samples were collected after cardiac perfusion at 30 min, 2 h, and 8 h. After pretreatment, the samples were analyzed by LC-MS/MS to determine the concentration of the test compound in the plasma and brain, and pharmacokinetic parameters were calculated.
# [3] = target: T1, α1β2γ2 GABA receptors (α1β2γ2-CHO-TRex stable cell strain) (Homo sapiens, UniProt P14867+P47870); assay: Whole-cell patch clamp, intrasynaptic functional activity (positive allosteric regulation of GABA-induced current); type: cell-based; settings: patch clamp -60 mV, GABA at EC10-20, α1β2γ2-CHO-TRex cells
# T1 construct: expressed in transfected cells
# Outline: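 Tetracycline-induced stable lines were used: α4β3δ in HEK-FlpIn-TRex and α1β2γ2 in CHO-TRex. Whole-cell patch clamp was run at −60 mV with GABA at EC10-20 ([…]) and compound perfused for 30 s before GABA, with extracellular pH 7.4. Fold increase in GABA current over ≥5 concentrations on ≥3 cells gave EC50 and Emax by Hill fit.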
# [4] = 3.5 mg/kg oral 2 h before PTZ 50 mg/kg i.p., observed 1 h, P<0.001 vs solvent control
# [5] = male, rat, 6.1 umol/kg, IV 6.1 μmol/kg, plasma
# [6] = male, rat, plasma, 6.1 umol/kg, IV 6.1 μmol/kg
# [7] = male, rat, plasma, po, 24.4 umol/kg, IG 24.4 μmol/kg
# [8] = male, rat, po, 24.4 umol/kg, IG 24.4 μmol/kg, plasma
# [9] = male, mouse, IV 1 mg/kg, plasma
# [10] = male, mouse, plasma, IV 1 mg/kg
# [11] = male, mouse, plasma, po, IG 5 mg/kg
# [12] = male, mouse, po, IG 5 mg/kg, plasma
# T1 sequence (P14867 28-456): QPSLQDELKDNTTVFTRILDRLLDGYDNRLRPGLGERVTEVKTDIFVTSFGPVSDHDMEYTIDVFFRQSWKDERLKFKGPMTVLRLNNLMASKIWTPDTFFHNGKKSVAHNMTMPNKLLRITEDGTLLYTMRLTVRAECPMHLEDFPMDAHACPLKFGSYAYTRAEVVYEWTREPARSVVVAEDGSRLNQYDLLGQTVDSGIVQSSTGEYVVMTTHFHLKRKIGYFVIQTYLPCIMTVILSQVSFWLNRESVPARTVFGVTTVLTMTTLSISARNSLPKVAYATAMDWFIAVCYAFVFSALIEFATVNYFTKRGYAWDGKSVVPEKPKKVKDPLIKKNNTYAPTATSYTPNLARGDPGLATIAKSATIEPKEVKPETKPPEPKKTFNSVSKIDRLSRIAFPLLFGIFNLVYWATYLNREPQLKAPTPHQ
# T1 sequence (P47870 25-512 limits assumed): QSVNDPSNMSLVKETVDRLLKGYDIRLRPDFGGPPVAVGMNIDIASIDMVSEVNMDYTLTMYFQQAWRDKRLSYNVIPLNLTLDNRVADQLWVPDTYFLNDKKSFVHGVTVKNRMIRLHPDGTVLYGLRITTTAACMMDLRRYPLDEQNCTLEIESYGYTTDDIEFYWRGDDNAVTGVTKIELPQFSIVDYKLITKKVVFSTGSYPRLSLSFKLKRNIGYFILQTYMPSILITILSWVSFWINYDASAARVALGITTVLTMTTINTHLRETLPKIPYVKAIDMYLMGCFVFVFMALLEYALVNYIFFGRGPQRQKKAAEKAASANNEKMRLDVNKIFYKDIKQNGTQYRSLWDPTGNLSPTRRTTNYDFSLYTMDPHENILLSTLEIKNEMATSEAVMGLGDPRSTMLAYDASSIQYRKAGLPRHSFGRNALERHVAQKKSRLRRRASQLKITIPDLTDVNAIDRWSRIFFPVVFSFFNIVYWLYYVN
# T1 sequence (P18507 40-475 partner): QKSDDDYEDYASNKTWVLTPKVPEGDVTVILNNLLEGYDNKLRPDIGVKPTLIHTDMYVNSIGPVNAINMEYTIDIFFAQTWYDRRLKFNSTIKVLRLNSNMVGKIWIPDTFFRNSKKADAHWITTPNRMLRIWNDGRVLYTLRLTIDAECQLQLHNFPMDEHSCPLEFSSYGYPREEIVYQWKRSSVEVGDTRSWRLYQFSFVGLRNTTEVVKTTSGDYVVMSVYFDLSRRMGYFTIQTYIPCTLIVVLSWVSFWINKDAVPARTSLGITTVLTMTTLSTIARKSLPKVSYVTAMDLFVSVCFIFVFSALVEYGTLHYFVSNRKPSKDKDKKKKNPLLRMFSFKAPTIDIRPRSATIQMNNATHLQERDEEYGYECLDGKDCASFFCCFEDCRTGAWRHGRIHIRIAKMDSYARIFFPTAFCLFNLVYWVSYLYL
smiles,measurement,setting,value
C[C@@]1(O)CC[C@H]2[C@H](CC[C@@H]3[C@@H]2CC[C@]2(C)[C@@H](C(=O)Cn4cnn(-c5cc(F)nc(F)c5)c4=O)CC[C@@H]32)C1 [Compound 41],latency period of clonic convulsion behavior,SD rats; [4],2764.6 ± 1330.9 s
same,latency period of tonic-clonic behavior,SD rats; [4],3600 ± 0 s
same,effective dose for the antiepileptic convulsion effect,"SD rats; oral, PTZ model",3.5 mg/kg
same,brain penetration capability (in words),[1]; IG 24.4 μmol/kg,strong
same,Brain concentration,"[1]; IG 24.4 μmol/kg, 30 min",2565 ± 452 nmol/kg
same,Brain concentration,"[1]; IG 24.4 μmol/kg, 2 h",4533 ± 720 nmol/kg
same,Brain concentration,"[1]; IG 24.4 μmol/kg, 6 h",2692 ± 259 nmol/kg
same,AUC(0-inf),[1]; [5],10.1 ± 2.38 µM·h
same,AUC(0-t),[1]; [5],9.71 ± 2.26 µM·h
same,C0,[1]; [5],2.11 ± 0.537 µM
same,Kp at 30 min,"[1]; male, rat, brain/plasma, oral, IG 24.4 μmol/kg, 30 min, read-out: Brain-to-blood ratio",0.8
same,Kp at 2 h,"[1]; male, rat, brain/plasma, oral, IG 24.4 μmol/kg, 2 h, read-out: Brain-to-blood ratio",1.2
same,Kp at 6 h,"[1]; male, rat, brain/plasma, oral, IG 24.4 μmol/kg, 6 h, read-out: Brain-to-blood ratio",1.8
same,MRT last,[1]; [6],6.3 ± 0.83 h
same,half-life,[1]; [6],5.17 ± 0.55 h
same,bioavailability,"[1]; male, rat, plasma, oral, IG 24.4 μmol/kg vs IV 6.1 μmol/kg, read-out: F (absolute bioavailability)",84%
same,concentration at 30 min,"[1]; male, rat, plasma, oral, IG 24.4 μmol/kg, 30 min",3.2 ± 1.16 µM
same,concentration at 2 h,"[1]; male, rat, plasma, oral, IG 24.4 μmol/kg, 2 h",3.81 ± 0.67 µM
same,concentration at 6 h,"[1]; male, rat, plasma, oral, IG 24.4 μmol/kg, 6 h",1.48 ± 0.261 µM
same,MRT last,[1]; [7],7.61 ± 0.6 h
same,Tmax,[1]; [7],1.67 ± 0.58 h
same,half-life,[1]; [7],6.11 ± 1.44 h
same,AUC(0-inf),[1]; [8],35.1 ± 7.03 µM·h
same,AUC(0-t),[1]; [8],32.5 ± 5.2 µM·h
same,Cmax,[1]; [8],3.28 ± 0.324 µM
same,brain penetration capability (in words),[2]; IG 5 mg/kg,strong
same,AUC(0-inf),[2]; [9],4320 ng·h/mL
same,AUC(0-t),[2]; [9],3660 ng·h/mL
same,C0,[2]; [9],490 ng/mL
same,concentration at 30 min,"[2]; male, mouse, brain, oral, IG 5 mg/kg, 30 min, read-out: Brain concentration",847 ± 36 ng/g
same,concentration at 2 h,"[2]; male, mouse, brain, oral, IG 5 mg/kg, 2 h, read-out: Brain concentration",1920 ± 978 ng/g
same,concentration at 8 h,"[2]; male, mouse, brain, oral, IG 5 mg/kg, 8 h, read-out: Brain concentration",1590 ± 233 ng/g
same,Kp at 30 min,"[2]; male, mouse, brain/plasma, oral, IG 5 mg/kg, 30 min, read-out: Brain-to-blood ratio",0.9
same,Kp at 2 h,"[2]; male, mouse, brain/plasma, oral, IG 5 mg/kg, 2 h, read-out: Brain-to-blood ratio",1.5
same,Kp at 8 h,"[2]; male, mouse, brain/plasma, oral, IG 5 mg/kg, 8 h, read-out: Brain-to-blood ratio",1.8
same,MRT last,[2]; [10],7.9 h
same,half-life,[2]; [10],9 h
same,bioavailability,"[2]; male, mouse, plasma, oral, IG 5 mg/kg vs IV 1 mg/kg, read-out: F (absolute bioavailability)",109%
same,concentration at 30 min,"[2]; male, mouse, plasma, oral, IG 5 mg/kg, 30 min, read-out: Plasma concentration",936 ± 119 ng/mL
same,concentration at 2 h,"[2]; male, mouse, plasma, oral, IG 5 mg/kg, 2 h, read-out: Plasma concentration",1280 ± 345 ng/mL
same,concentration at 8 h,"[2]; male, mouse, plasma, oral, IG 5 mg/kg, 8 h, read-out: Plasma concentration",891 ± 72 ng/mL
same,MRT last,[2]; [11],9.8 h
same,Tmax,[2]; [11],1 h
same,half-life,[2]; [11],16.5 h
same,AUC(0-inf),[2]; [12],31300 ng·h/mL
same,AUC(0-t),[2]; [12],20000 ng·h/mL
same,Cmax,[2]; [12],1670 ng/mL
same,EC50,[3],145 nM
same,Emax,[3],762%

# — patent US20250368678A1, “19-NOR-C3,3-DISUBSTITUTED C21-AZACYCLO-S[…] AND METHOD FOR USING SAME” (SHANDONG LUYE PHARMACEUTICAL CO., LTD., priority 2022, published 2025)
